Source: patent US20020183384A1, “Methods of treating nuclear factor-kappa B mediated diseases and disorders” (priority 2001, published 2002)

system: NF-κB mediated transcription; assay: NF-κB driven β-lactamase reporter assay in ECV-304 NF-κB.βlaZ cells (AURORA CCF2 fluorescence); assay type: cell-based, human; settings: Homo sapiens, ECV-304, 6 h, 10 μM compound; ECV-304 NF-κB.βlaZ cells stimulated with 10 ng/mL TNF-α or 100 pg/mL IL-1β, 6 hours at 37° C.; inhibition of maximum blue/green ratio; read-out: Percent Inhibition at 10 μM
Summary of the method: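 ECV-304 cells (clone 1E8) stably carrying a β-lactamase reporter driven by 5 HIV-1 NF-κB sites, plated in M-199 with 2% FBS, compound at 10 μM final. CCF2 read at 395 nm excitation, blue 460 nm/green 530 nm emission ratio; IC50 from dose-response curve.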

SMILES	inhibition at 10 µM
CC(=O)OC(C(=O)NS(=O)(=O)Oc1c(C(C)C)cccc1C(C)C)c1c(C(C)C)cc(C(C)C)cc1C(C)C (stereo not drawn) [Example 154, Acetic acid 2-(2,6-diisopropyl-phenoxysulfonylamino)-2-oxo-1-(2,4,6-triisopropyl-phenyl)-ethyl ester]	77.7%
CC(C)c1cc(C(C)C)c(CC(=O)NS(=O)(=O)Oc2c(C(C)C)cc(NC(=O)CN)cc2C(C)C)c(C(C)C)c1 [Example 200, [(2,4,6-Triisopropyl-phenyl)-acetyl]-sulfamic acid 4-(2-amino-acetylamino)-2,6-diisopropyl-phenyl ester]	72.7%
CCCCCCCCN(C)S(=O)(=O)NC(=O)Nc1c(C(C)C)cccc1C(C)C [Example 45, Urea, N-[2,6-bis(1-methylethyl)phenyl]-N′-[(methyloctylamino)sulfonyl]-]	53.5%
CC(C)c1cccc(C(C)C)c1OS(=O)(=O)NC(=O)C(=O)c1ccccc1 [Example 157, (Oxo-phenyl-acetyl)-sulfamic acid 2,6-diisopropyl-phenyl ester]	< 10%
COC(=O)NS(=O)(=O)Nc1c(C(C)C)cccc1C(C)C [Example 54, Carbamic acid, [[[2,6-bis(1-methylethyl)phenyl]amino]sulfonyl]-, methyl ester]	< 10%
Cc1cc(C)c(CC(=O)NS(=O)(=O)Oc2c(C(C)C)cccc2C(C)C)c(C)c1 [Example 146, [(2,4,6-Trimethyl-phenyl)-acetyl]-sulfamic acid 2,6-diisopropyl-phenyl ester]	28.3%
CC(C)c1cccc(C(C)C)c1OS(=O)(=O)NC(=O)Cc1ccsc1 [Example 149, (Thiophen-3-yl-acetyl)-sulfamic acid 2,6-diisopropyl-phenyl ester]	< 10%
CSCCC(NC(=O)OC(C)(C)C)C(=O)Nc1cc(C(C)C)c(OS(=O)(=O)NC(=O)Cc2c(C(C)C)cc(C(C)C)cc2C(C)C)c(C(C)C)c1 (stereo not drawn) [Example 214, [1-(3,5-Diisopropyl-4-{[(2,4,6-triisopropyl-phenyl)-acetyl]sulfamoyloxy}-phenylcarbamoyl)-3-methylsulfanyl-propyl]-carbamic acid tert-butyl ester]	71.7%
CC(C)c1cccc(C(C)C)c1OS(=O)(=O)NC(=O)C1CCc2ccccc2C1 (stereo not drawn) [Example 165, (1,2,3,4-Tetrahydro-naphthalene-2-carbonyl)-sulfamic acid 2,6-diisopropyl-phenyl ester]	28.7%
CC(C)c1cc(C(C)C)c(CC(=O)NS(=O)(=O)Oc2c(C(C)C)cc(NC(=O)C(C)(C)N)cc2C(C)C)c(C(C)C)c1 [Example 207, [(2,4,6-Triisopropyl-phenyl)-acetyl]-sulfamic acid 4-(2-amino-2-methyl-propionylamino)-2,6-diisopropyl-phenyl ester]	60.3%
CC(C)c1cccc(C(C)C)c1OS(=O)(=O)NC(=O)Cc1ccccc1C(F)(F)F [Example 158, [(2-Trifluoromethyl-phenyl)-acetyl]-sulfamic acid 2,6-diisopropyl-phenyl ester]	25.9%
COc1cccc(OC)c1OS(=O)(=O)NC(=O)Cc1c(C(C)C)cc(C(C)C)cc1C(C)C [Example 186, [(2,4,6-Triisopropyl-phenyl)-acetyl]-sulfamic acid 2,6-dimethoxy-phenyl ester]	18.8%
CC(C)c1cccc(C(C)C)c1NS(=O)(=O)NC(=O)NC(c1ccccc1)c1ccccc1 [Example 18, N-[[[2,6-bis(1-methylethyl)phenyl]amino]sulfonyl]-N′-(diphenylmethyl)-urea]	35.9%
CC(C)c1cc(C(C)C)c(CC(=O)NS(=O)(=O)Oc2c(C(C)C)cc(NC(=O)CCN)cc2C(C)C)c(C(C)C)c1 [Example 220, [2-(2,4,6-Triisopropyl-phenyl)-acetyl]-sulfamic acid 4-(3-amino-propionylamino)-2,6-diisopropyl-phenyl ester; compound with trifluoro-acetic acid]	65.5%
CCCCCCCCCCCCOS(=O)(=O)NC(=O)Nc1c(C(C)C)cccc1C(C)C [Example 69, Sulfamic acid, [[[2,6-bis(1-methylethyl)phenyl]amino]carbonyl]-, dodecyl ester]	75.5%
CCCCN(CCCC)S(=O)(=O)NC(=O)Nc1c(C(C)C)cccc1C(C)C [Example 21, N-[2,6-bis(1-methylethyl)phenyl]-N′-[(dibutylamino)sulfonyl]-urea]	29.4%
CCCCCCCCCCCCOS(=O)(=O)NC(=O)Cc1c(C(C)C)cc(C(C)C)cc1C(C)C [Example 199, [(2,4,6-Triisopropyl-phenyl)-acetyl]-sulfamic acid dodecyl ester]	50.7%
CC(C)c1cc(C(C)C)c(CC(=O)NS(=O)(=O)Oc2c(C(C)C)cc([N+](=O)[O-])cc2C(C)C)c(C(C)C)c1 [Example 182, [(2,4,6-Triisopropyl-phenyl)-acetyl]-sulfamic acid 2,6-diisopropyl-4-nitro-phenyl ester]	69.8%
CCCCCN(CCCCC)S(=O)(=O)NC(=O)Nc1c(C(C)C)cccc1C(C)C [Example 64, Urea, N-[2,6-bis(1-methylethyl)phenyl]-N′-[(dipentylamino)sulfonyl]-]	55.4%
CC[C@H](C=C[C@@H](C)[C@H]1CC[C@H]2[C@@H]3CC=C4C[C@H](OC(=O)NS(=O)(=O)Oc5c(C(C)C)cccc5C(C)C)CC[C@]4(C)[C@H]3CC[C@]12C)C(C)C [Example 118, Stigmasta-5,22-dien-3-ol, [[2,6-bis(1-methylethyl)phenoxy]sulfonyl]-carbamate, (3α)-]	< 10%

same assay, conditions: Homo sapiens; 10 μM compound; ECV-304 NF-κB.βlaZ cells stimulated with 10 ng/mL TNF-α or 100 pg/mL IL-1β, 6 hours at 37° C.; inhibition of maximum blue/green ratio; read-out: Percent Inhibition at 10 μM

SMILES	inhibition at 10 µM
CC(C)c1cccc(C(C)C)c1OC(=O)NS(=O)(=O)Oc1c(C(C)(C)C)cccc1C(C)(C)C [Example 102, Carbamic acid, [[2,6-bis(1,1-dimethylethyl)phenoxy]sulfonyl]-, 2,6-bis(1-methylethyl)phenyl ester]	20.6%
CCCCCCNS(=O)(=O)NC(=O)Oc1c(C(C)(C)C)cc(C)cc1C(C)(C)C [Example 34, Carbamic acid, [(hexylamino)sulfonyl]-, 2,6-bis(1,1-dimethylethyl)-4-methylphenyl ester]	24.3%
COc1cccc(OC)c1OC(=O)NS(=O)(=O)Oc1c(C(C)C)cccc1C(C)C [Example 108, Carbamic acid, [[2,6-bis(1-methylethyl)phenoxy]sulfonyl]-, 2,6-dimethoxyphenyl ester]	< 10%
CC(C)(C)c1cccc(C(C)(C)C)c1OC(=O)NS(=O)(=O)NCC(c1ccccc1)c1ccccc1 [Example 11, Carbamic acid, [[(2,2-diphenylethyl)amino]sulfonyl]-, 2,6-bis(1,1-dimethylethyl)-phenyl ester]	50.1%
CCCCCCCCCCCCOS(=O)(=O)NC(=O)Oc1c(-c2ccccc2)cccc1-c1ccccc1 [Example 92, Carbamic acid, [(dodecyloxy)sulfonyl]-, [1,1′:3′,1″-terphenyl]-2′-yl ester]	< 10%
CCCCN(CCCC)S(=O)(=O)NC(=O)Oc1c(C(C)C)cccc1C(C)C [Example 27, Carbamic acid, [(dibutylamino)sulfonyl]-, 2,6-bis(1-methylethyl)phenyl ester]	26.1%
CCCCCN(CCCCC)S(=O)(=O)NC(=O)Oc1c(C(C)C)cccc1C(C)C [Example 89, Carbamic acid, [(dipentylamino)sulfonyl]-, 2,6-bis(1-methylethyl)phenyl ester]	31.9%
